Measured values: US7230139B2, “Diterpenoid compounds, compositions thereof and their use as anti-cancer or anti-fungal agents” (priority 2004, dated 2007)
Where two headings read alike, the source gives them in different places.

Key:
[1] = Body weight of SW480 tumor-bearing mice; type: in vivo, CB17 SCID/SCID female mice; settings: i.v. once daily for five days; 10 mg/kg (50, 50a, 50b), 50 mg/kg (74a)
Method: SW480 cells were transplanted subcutaneously into the flank of female CB 17 SCID/SCID mice. Each mouse was inoculated with a suspension of 1×10^6 tumor cells per 100 μL on day zero. The following five treatment groups of ten mice each were used: (a) a negative control group treated with intravenous (i.v.) injection of vehicle, (b) a group treated with i.v. injection of a Compound 50, (c) a group treated with i.v. injection of a Compound 50a, (d) a group treated with i.v. injection of Compound 50b, (e) a group treated with i.v. injection of Compound 74a.
Treatment started on day twelve after SW480 cells transplantation and Compounds 50, 50a, 50b and 74a were administered i.v. once daily for five consecutive days at a dose of 10, 10, 10 and 50 mg/kg, respectively. Compound 50, 50a and 50b were prepared as a working solution of 1.5 mg/mL in a vehicle solution of 20% Cremaphor EL (Sigma, St. Louis, Miss., USA), and 10% Ethanol. Compound 74a was prepared as a working solution of 5 mg/mL in a vehicle solution of 5% Dextrose (Abbot Laboratories, QC, Canada). The negative control groups were treated with vehicle solution of 20% Cremaphor EL and 10% Ethanol alone.
(§1) The mice were weighed and the tumors measured on day 12 and every 2 to 3 days after treatment commenced. Observations continued for 23 days after initial tumor implantation. The changes in body weight and in the calculated tumor volume were plotted (FIGS. 9 and 10). Statistical analysis was performed using GraphPad Prism (GraphPad Software Inc., San Diego, Calif.). Two-way ANOVA was used to determine how the treatment affected tumor growth over time. Following the two-way ANOVA, post-tests were performed using the Benferroni method to determine the statistical difference between the mean tumor-size of the two groups being compared on every day that the tumors were measured.

[2] = tested on: Saccharomyces cerevisiae strain W303a; experiment: Yeast growth inhibition (OD600); type: cell-based; settings: dilution series, YEP with glucose, galactose or glycerol, 30° C.; dose-dependent
Method: Yeast cells were first cultured overnight in 10 mL of YEP glucose-containing medium at 30° C. The following day, 5 μL of the overnight culture (5–6×10^3 cells) was added to 100 μL of YEP media supplemented with 2% of one of the three carbon sources mentioned above in a 96-well microtitre plate. To these cultures a dilution series of Compound 50 was added. Compound 50 was prepared as a stock solution in 100% dimethyl sulfoxide (DMSO) at a concentration of 10 mM. Serial dilutions were prepared in distilled water. The final DMSO concentration in each well was 0.5%. Yeast cells were grown at 30° C. and cell growth was monitored by reading the OD600 (optical density at 600 nm) with a Tecan ULTRA plate reader (TECAN U.S. Inc., Research Triangle Park, N.C., USA). […] Accordingly, Compound 50, an illustrative Diterpenoid Compound, is useful for inhibiting the growth of a fungus or treating a fungal infection.

[3] = type: in vivo, CB17 SCID/SCID female mice
Method: C33A cells were transplanted subcutaneously into the flank of female CB17 SCID/SCID mice. Each mouse was inoculated with a suspension of 2×10^6 tumor cells per 100 μL on day zero. The following six treatment groups of ten mice each were used: (a) a negative control group treated with intravenous (i.v.) injection of vehicle, (b) a negative control group treated with intraperitoneal (i.p.) injection of vehicle, (c) a positive control group treated with i.p. injection of Cisplatin, (d) a group treated with i.v. injection of a Compound 50, (e) a group treated with i.p. injection of Compound 50, and (f) a group treated with subcutaneous (s.c.) injection of Compound 50.
Treatment started on day thirteen after C33A cells transplantation for Compound 50 treated groups and on day fourteen for Cisplatin treated group. Compound 50 was administered i.v., i.p., and s.c. once daily for five consecutive days at a dose of 10, 15 and 30 mg/kg, respectively. Compound 50 was prepared as a working solution of 1.5 mg/mL in a vehicle solution of 20% Cremaphor EL (Sigma, St. Louis, Mo., USA), 10% Ethanol and 5% Dextrose (Abbot Laboratories, QC, Canada). The negative control groups were treated with vehicle alone. The positive control group was treated once every 3 days for fifteen days at a dose of 3.5 mg/kg. Cisplatin was formulated in PBS on each day of the injection and was administered i.p.
as §1, with “13” for “12”, “36” for “23”, “4” for “9”, “5).” for “10).”, “measured. […]” for “measured.”

COc1ccc2c(c1)C1(C)C=CC(=O)C(C)(C)C1=C(O)C2=O (racemic) [Compound 50]
Change in body weight [1]: non-significant change in body weight | Growth of Saccharomyces cerevisiae [2]: significantly inhibited growth | Change in body weight ([3]; Compound 50 i.v., i.p. or s.c. 10, 15, 30 mg/kg once daily for five days): non-significant change in body weight | Animals died during the observation period ([3]; i.v. group of ten mice, four died in the i.v. vehicle group): two animals
